The values below are quoted from earlier work in US11399558B2, “Rebaudioside-D containing sweetener compositions” (Heartland Consumer Products, LLC, priority 2015, dated 2022).

The structures appear in SMILES notation. Read-outs that look alike come from different tables or passages of the source.

The conditions of data set [1]: on a weight basis.
The conditions of data set [2]: heat, acid, and alkaline conditions.
The conditions of data set [3]: absorbed into the bloodstream in the small intestine.
The conditions of data set [4]: for Solubility in ethanol: ethanol / alcohol.
The conditions of data set [5]: Chang et al. 1983.

As for `OC[C@@H](O)[C@@H](O)CO` [Eryrithritol, 1,2,3,4-butanetetrol], the “Sweetness relative to sucrose (cane sugar)” value in data set [1] is on record as “about 70%”. Also, the Stability entry in data set [2] is “stable”. Further, the Excretion entry in data set [3] was “for the most part is excreted unchanged in the urine”. Also, in data set [4] (DMSO), the “Solubility in DMSO” value is given as “Insoluble”. Further, in data set [4], the Solubility in ethanol entry is given as “Slight” and the Solubility in water entry is reported as “Soluble”. Further, in data set [4] (listed as Erythritol), the Solubility in ethanol entry is “slightly soluble” and the Solubility in water result is “water soluble”.

Regarding `C=C1C[C@@]23CC[C@H]4[C@@](C)(CCC[C@@]4(C)C(=O)O[C@@H]4O[C@H](CO)[C@@H](O)[C@H](O)[C@H]4O)[C@@H]2CC[C@]1(O[C@@H]1O[C@H](CO)[C@@H](O)[C@H](O[C@@H]2O[C@H](CO)[C@@H](O)[C@H](O)[C@H]2O)[C@H]1O[C@@H]1O[C@H](CO)[C@@H](O)[C@H](O)[C@H]1O)C3` [Rebaudioside A], the “Stability in carbonated beverages” value in data set [5] is “heat and pH stability”.

Turning to `C=C1C[C@@]23CC[C@H]4[C@@](C)(CCC[C@@]4(C)C(=O)O[C@@H]4O[C@H](CO)[C@@H](O)[C@H](O)[C@H]4O)[C@@H]2CC[C@]1(O[C@@H]1O[C@H](CO)[C@@H](O)[C@H](O)[C@H]1O[C@@H]1O[C@H](CO)[C@@H](O)[C@H](O)[C@H]1O)C3` [Stevioside], the “Stability in carbonated beverages” value in data set [5] was “heat and pH stability”.
